{"source": "patent US20100249175A1", "about": "“Dicationic compounds which selectively recognize G-quadruplex DNA” (priority 2005, published 2010)", "key": {"[1]": {"tested_on": "d[TGGGGT] (SEQ ID NO: 13)", "assay": "CD titration with d[TGGGGT]", "type": "binding", "conditions": "50 mM KCl, 10 mM K2HPO4, 0.1 mM EDTA, pH 7.0", "text": "The oligonucleotides d[AG3(T2AG3)3] (SEQ ID NO: 1), d[AG3TG4AG3TG4A] (SEQ ID NO: 2), d[G4(T4G4)3] (SEQ ID NO: 3), d[(T2G4)4] (SEQ ID NO: 4), d[(GC)7] (SEQ ID NO: 5), d[[…]] (SEQ ID NO: 6), d[G2T2G2TGTG2T2G2] (SEQ ID NO: 7), d[[…]] (SEQ ID NO: 8), d[[…]] (SEQ ID NO: 9), d[[…]] (SEQ ID NO: 10), d[[…]] (SEQ ID NO: 11), d[TTAGGGT] (SEQ ID NO: 12), and d[TGGGGT] (SEQ ID NO: 13) were purchased with HPLC purification from Midland Certified Reagent Company (The Midland Certified Reagent Company, Inc., Midland, Tex., USA). The concentration of each DNA sample was determined spectrophotometrically at 260 nm using the nearest neighbor extinction coefficient.\nStock solutions of individual dicationic polyaryl compounds were prepared in double distilled water and diluted to working concentrations immediately before use with buffer. […] Absorbance spectra were obtained on a Varian Cary 300 BIO UV-visible spectrophotometer (Varian, Inc., Palo Alto, Calif., United States of America) in a quartz cell with a 1 cm pathlength. CD spectra were recorded using a Jasco J-810 spectrapolarimeter (Jasco, Inc., Easton, Md., United States of America) in a 1-cm cell using an instrument scanning speed of 50 nm/min with a response time of 1 s. The spectra were averaged over four scans. A buffer baseline scan was collected in the same cuvette and subtracted from the average scan for each sample. […]"}, "[2]": {"tested_on": "Trypanosoma brucei rhodesiense (T. b. r.)", "assay": "In vitro antiprotozoal activity against T. b. r.", "type": "cell-based", "description": "In vitro antiprotozoal activities were measured following established protocols. […] E., et al., Bioorg."}, "[3]": {"molecular_target": "duplex hairpin d[[…]] (SEQ ID NO: 8)", "assay": "Surface plasmon resonance, immobilized duplex hairpin DNA", "type": "binding", "conditions": "SPR, 25° C., HEPES buffer containing 200 mM KCl", "description": "(§1) Surface plasmon resonance (SPR) measurements were performed with a four-channel Biacore® 3000 optical biosensor system (Biacore International AB, Uppsala, Sweden). 5′-biotin labeled DNA was immobilized onto streptavidin-coated Biacore® SA sensor chips as previously described. See Lacy, E. R., et al., J. Amer. Chem. Soc., 124, 2153-2163 (2002); Mazur, S., et al., J. Mol. Biol., 300, 321-337 (2000); Nguyen, B., et al., Biopolymers, 63, 281-297 (2002); Wang, L., et at, Proc. Natl. Acad. Sci. USA, 97, 12-16 (2000); and Wang, L., et al., Biochemistry, 40, 2511-2521 (2001). Two flow cells were used to immobilize the\nDNA oligomer samples, while a third cell was left blank as a control. […]\nSolutions of known concentration of 8 ranging from 2 nM to 10 μM were injected through the flow cells until a constant steady-state response was obtained. […] The instrument response (RU) in the steady-state region was determined by linear averaging over a 50 second time span. The predicted maximum response per bound compound in the steady-state region (RUmax) was determined from the DNA molecular weight, the amount of DNA on the flow cell, the compound molecular weight, and the refractive index gradient ratio of the compound and DNA, as previously described. […]\n(§2) Surface plasmon resonance (SPR) was used to quantitatively evaluate the interaction between 8 and human telomeric DNA. […]"}, "[4]": {"tested_on": "human telomeric sequence d[AG3(T2AG3)3] (SEQ ID NO: 1)", "assay": "Surface plasmon resonance, immobilized human telomeric DNA", "type": "binding", "description": "as §1\nDNA oligomer samples, while a third cell was left blank as a control. The SPR studies were performed at 25° C. in a filtered, degassed, 10 mM HEPES buffer (pH 7.4) containing 200 mM KCl, 3 mM EDTA and 0.005% surfactant P20 (Biacore International AB). Compound solutions were prepared by serial dilutions from stock solution and injected from 7-mm plastic vials with pierceable plastic crimp caps.\nSolutions of known concentration of 8 ranging from 2 nM to 10 μM were injected through the flow cells until a constant steady-state response was obtained. […] The instrument response (RU) in the steady-state region was determined by linear averaging over a 50 second time span. The predicted maximum response per bound compound in the steady-state region (RUmax) was determined from the DNA molecular weight, the amount of DNA on the flow cell, the compound molecular weight, and the refractive index gradient ratio of the compound and DNA, as previously described. […] To obtain the binding constants, the data were fitted to a two-site equilibrium model using KaleidaGraph (Synergy Software, Reading, Pa., United States of America) for nonlinear least square optimization of the binding parameters, where RUmax is the maximum response per bound compound and K1 and K2 are the macroscopic binding constants for a two-site binding model: […]\nas §2"}, "[5]": {"conditions": "SPR, 25° C., HEPES buffer containing 200 mM KCl"}}}
{"smiles": "N=C(N)c1ccc(-c2ccc(-c3ccc(C(=N)N)o3)o2)cc1", "note": "[Compound 8, 5′-(4-Amidinophenyl)-2,2′-bifuran-5-carboxamidine]", "values": [{"measurement": "induced CD / exciton splitting (in words)", "setting": "[1]", "result": "does not show any induced CD or exciton splitting"}, {"measurement": "IC50", "setting": "[2]", "result": 12, "unit": "nM"}, {"measurement": "K, binding constant for the single site", "setting": "[3]", "result": 130000, "unit": "M⁻¹"}, {"measurement": "selectivity for the human telomeric quadruplex over the duplex DNA", "setting": "[4]; SPR binding constants", "result": "approximately 4 fold"}, {"measurement": "K1, macroscopic binding constant, two-site model", "setting": "[4]; [5]", "result": 470000, "unit": "M⁻¹"}, {"measurement": "K2, macroscopic binding constant, two-site model", "setting": "[4]; [5]", "result": 45000, "unit": "M⁻¹"}]}
